# Source: article PMC10746103, “Development of a HPLC-MS/MS Method to Assess the Pharmacokinetics and Tumour Distribution of the Dimethylarginine Dimethylaminohydrolase 1 Inhibitors ZST316 and L-257 in a Xenograft Model of Triple-Negative Breast Cancer in Mice” (Molecules, 2023)
# “And” between values parts separate entries of the source, which are not always exact repeats. Identical values can stand only once. “Also recorded” adds a separate entry of the source.
# Assays:
# [1] = Plasma pharmacokinetics of ZST316 and L-257 after intraperitoneal ZST316 in MDA-MB-231 xenograft mice (HPLC-MS/MS); type: in vivo, SCID mice
# Protocol: (§1) Six-week-old female severe combined immunodeficiency disease (SCID) mice (n = 24; Charles River Laboratories Italia S.r.L., Calco, Lecco, Italy), were housed under rigorous standards and handled under pathogen-free conditions in the Animal Care Facilities of the Mario Negri Institute for Pharmacological Research (Milan, Italy).
# (§2) Two ×10^6 (in 10 μL) MDA-MB-231 TNBC cells were transplanted into the mammary fat pad. Tumour growth was regularly monitored with a calliper and treatment with ZST316 was given when the tumour volume reached 400–500 mm^3. Mice received either a single dose (acute treatment) or a daily dose of ZST316 30 mg/Kg intraperitoneally for five days (chronic treatment).
# (§3) Plasma and tumour tissue (n = 3 mice/each time point) were sampled at 1, 8 and 24 h after treatment (on day 5 for the chronic treatment). To collect plasma, mice were anesthetized by isoflurane, the blood was drained from the retro-orbital plexus into heparinised tubes and centrifuged for 10 min at 4000× g at 4 °C. Tumours were collected and immediately frozen. Plasma and tumour samples were stored at −20 °C until analysis.
# To assay ZST316 and L-257, 10 μL of IS (ZST152 WS: 500 ng/mL) were added to 100 μL of study plasma samples, standards, and QCs in a polypropylene tube. The samples were then added with 10 μL of NH4COOH 50 mM, mixed and added with 400 μL CH3OH:0.1% HCOOH, vortex mixed again and centrifuged at 13,200 rpm for 10 min at 4 °C. The supernatant was transferred to a 1.5 mL Eppendorf tube, dried under nitrogen flow and reconstituted with 100 μL of mobile phase (MP) A:B (1:1, v/v). Finally, the samples were centrifuged at 13,200 rpm for 10 min at 4 °C and the supernatant transferred into vials for HPLC-MS/MS analysis.
# (§4) Reversed-phase chromatography was performed under gradient conditions with separation on a HILIC column, C18, 3 μm, 100 A, 2.1 × 150 mm, Waters (Milford, MA, USA), coupled with a 3 μm, 3.9 × 5.0 mm guard column of the same material at the flow rate of 0.2 mL/min. Gradient features were: 10% mobile phase (MP) A (NH4HCO2 10 mM, 10% CH3CN, 0.1% HCOOH) and 90% MP B (CH3CN, 0.1% HCOOH) as initial constant condition; then to 90% MP A in 6 min and constant condition for 1.5 min. Return to start condition in 0.5 min and conditioning for 5.5 min. Total run time: 13.5 min. Analyte detection and quantification were performed using tandem mass spectrometry (MS/MS) operating in positive ionization mode as previously reported for ZST316 and ZST152 [31].
# [2] = Tumour distribution of ZST316 and L-257 after intraperitoneal ZST316 in MDA-MB-231 TNBC xenograft (HPLC-MS/MS); type: in vivo, SCID mice; conditions: for time intra-tumour concentration remained above the IC50 and Ki values for DDAH1 inhibition: estimated
# Protocol: as §1, §2, §3
# Control MDA-MB-231 TNBC cell tumours were homogenized with NH4COOH 50 mM (1:4, w:v). The homogenate (90 μL) was spiked with 5 μL of ZST316 and L-257 working solutions prepared in the range of 100–10,000 ng/mL generating seven tumour calibration standards in the range 25–5000 ng/g. The calibration curve included also a blank and a zero blank standard plasma sample (processed with IS). To prepare QC samples, 90 μL of the homogenate was mixed with an appropriate amount of QC working solutions to obtain QC plasma samples at the nominal concentration of 75, 375, and 1250 ng/g.
# The procedure was similar to that described for plasma in Section 3.3.2.
# as §4
# [3] = Stability of ZST316 and L-257 in frozen plasma; type: in vitro ADME, mice; conditions: for Mean found value, Stability −20 °C / Accuracy (%), Stability −20 °C: plasma QC, one month at −20 °C; for Mean found value, Stability −20 °C: n=3; for Accuracy (%), Stability −20 °C: percent of nominal
# Protocol: The stability of ZST316 and L-257 in plasma was assessed by analysing QC samples containing both compounds after prolonged storage in the same conditions of the study samples.
# Stability was determined by analysing 3 QCs per concentration level immediately after the preparation, and 3 QCs per concentration level after one month of storage at −20 °C. The analytes were considered stable at each QC concentration when the freshly prepared samples and the stability test samples differed by no more than 15% from the nominal concentrations.
# DDAH1 = conditions: cited from earlier work
# [4] = acute (single dose) ZST316 30 mg/Kg i.p., 1 h
# [5] = acute ZST316 30 mg/Kg i.p., 1 h
# [6] = acute ZST316 30 mg/Kg i.p., 8 h
# [7] = acute ZST316 30 mg/Kg i.p., 8 h, n=3
# [8] = acute ZST316 30 mg/Kg i.p., 24 h
# [9] = acute ZST316 30 mg/Kg i.p., approximately estimated due to limited time points
# [10] = chronic (five-day) ZST316 30 mg/Kg i.p. daily, 1 h
# [11] = chronic (five-day) ZST316 30 mg/Kg i.p. daily, 24 h
# [12] = chronic ZST316 30 mg/Kg i.p. daily
# [13] = chronic ZST316 30 mg/Kg i.p. daily, day 5, 1 h
# [14] = chronic ZST316 30 mg/Kg i.p. daily, day 5, 8 h
# [15] = chronic ZST316 30 mg/Kg i.p. daily, day 5, 8 h, n=3
# [16] = chronic ZST316 30 mg/Kg i.p. daily, day 5, 24 h
# [17] = chronic ZST316 30 mg/Kg i.p. daily, approximately estimated due to limited time points
# [18] = range over acute and chronic treatment
smiles,measurement,setting,value
COCCNC(N)=NCCC[C@H](N)C(=O)O [L-257],accumulation in plasma and tumour during chronic treatment,"[1]; ZST316 30 mg/Kg i.p. daily for five days, day 5 vs day 1",without accumulation; also recorded: no accumulation
same,mean plasma concentration,[1]; [4],2.02 µg/mL
same,Cmax,[1]; acute ZST316 30 mg/Kg i.p.,8.7 µM
same,Cmax plasma,[1]; acute ZST316 30 mg/Kg i.p.,2020 ng/mL
same,Plasma AUC1–24 h,[1]; acute ZST316 30 mg/Kg i.p.,0.061
same,Plasma AUC1–24 h,[1]; acute ZST316 30 mg/Kg i.p. (day 1),14.1 µg·h/mL
same,"plasma concentration, individual mice",[1]; [5],2610 ng/mL and 1700 ng/mL and 1760 ng/mL and 11.24 µM and 7.32 µM and 7.58 µM
same,"plasma concentration, individual mice",[1]; [6],272 ng/mL and 382 ng/mL and 2.16 µM and 1.17 µM and 1.65 µM and 502 ng/mL
same,mean plasma concentration,[1]; [7],385 ng/mL and 1.66 μM
same,"plasma concentration, individual mice",[1]; [8],38 ng/mL and 32.5 ng/mL and 47.8 ng/mL and 0.16 µM and 0.14 µM and 0.21 µM
same,half-life plasma,[1]; [9],4.2 h
same,mean plasma concentration,[1]; [10],1.60 µg/mL
same,mean plasma concentration,[1]; [11],0.06 µg/mL
same,Cmax,[1]; [12],6.89 µM
same,Cmax plasma,[1]; [12],1600 ng/mL
same,Plasma AUC1–24 h,[1]; [12],0.044
same,Plasma AUC1–24 h,[1]; chronic ZST316 30 mg/Kg i.p. daily (day 5),10.3 µg·h/mL
same,"plasma concentration, individual mice",[1]; [13],1600 ng/mL and 1500 ng/mL and 1710 ng/mL and 6.89 µM and 6.46 µM and 7.37 µM
same,"plasma concentration, individual mice",[1]; [14],249 ng/mL and 136 ng/mL and 0.90 µM and 1.07 µM and 0.59 µM and 209 ng/mL
same,mean plasma concentration,[1]; [15],198 ng/mL and 0.85 μM
same,"plasma concentration, individual mice",[1]; [16],58.8 ng/mL and 95.2 ng/mL and 29.1 ng/mL and 0.25 µM and 0.41 µM and 0.13 µM
same,half-life plasma,[1]; [17],5.3 h
same,half-life plasma,[1]; [18],4.2 to 5.3 h
same,measured concentration in unknown study plasma sample (Figure 2),"[1]; representative chromatogram, sample taken at 1 h after acute treatment (b8)",1710 ng/mL
same,mean intra-tumour concentration,[2]; [4],3.5 µg/g
same,mean intra-tumour concentration,"[2]; acute (single dose) ZST316 30 mg/Kg i.p., 24 h",0.04 µg/g
same,Cmax tumour,[2]; acute ZST316 30 mg/Kg i.p.,3.50 μg/g and 15.08 μM
same,tumour AUC,[2]; acute ZST316 30 mg/Kg i.p.,23.9 µg·h/g
same,"tumour concentration, individual mice",[2]; [5],3590 ng/g and 2810 ng/g and 4090 ng/g and 15.5 µM and 12.1 µM and 17.6 µM
same,"tumour concentration, individual mice",[2]; [6],225 ng/g and 1060 ng/g and 2.8 µM and 0.97 µM and 4.57 µM and 651 ng/g
same,mean tumour concentration,[2]; [7],645 ng/g and 2.78 μM
same,"tumour concentration, individual mice",[2]; [8],30.7 ng/g and 33.1 ng/g and 56.1 ng/g and 0.13 µM and 0.14 µM and 0.24 µM
same,half-life tumour,[2]; [9],3.6 h
same,time intra-tumour concentration remained above the IC50 and Ki values for DDAH1 inhibition,[2]; after acute ZST316 treatment,4 h
same,time intra-tumour concentration remained above the IC50 and Ki values for DDAH1 inhibition,[2]; after chronic ZST316 treatment,3.5 h
same,mean intra-tumour concentration,[2]; [10],3.24 µg/g
same,mean intra-tumour concentration,[2]; [11],0.10 µg/g
same,Cmax tumour,[2]; [12],3.24 μg/g and 13.96 μM
same,tumour AUC,[2]; [12],20.3 µg·h/g
same,"tumour concentration, individual mice",[2]; [13],3550 ng/g and 2810 ng/g and 3350 ng/g and 15.29 µM and 12.10 µM and 14.43 µM
same,"tumour concentration, individual mice",[2]; [14],413 ng/g and 403 ng/g and 326 ng/g and 1.78 µM and 1.74 µM and 1.40 µM
same,mean tumour concentration,[2]; [15],381 ng/g and 1.64 μM
same,mean tumour concentration,[2]; [16],97 ng/g
same,"tumour concentration, individual mice",[2]; [16],35.5 ng/g and 159 ng/g and < LOQ and 0.15 µM and 0.68 µM and 0.05 µM
same,mean tumour concentration,"[2]; chronic ZST316 30 mg/Kg i.p. daily, day 5, 24 h, n=3",0.30 µM
same,half-life tumour,[2]; [17],4.9 h
same,half-life tumour,[2]; [18],3.6 to 4.9 h
same,measured concentration in unknown study tumour sample (Figure 3),"[2]; representative chromatogram, sample taken at 24 h after acute treatment (b8)",30.7 ng/g
same,stability in frozen plasma,[3]; at least one month at −20 °C,stable
same,"Mean found value, Stability −20 °C",[3]; actual value 15.00 ng/mL,15.8 ng/mL
same,"Accuracy (%), Stability −20 °C",[3]; actual value 15.00 ng/mL,105.6%
same,"Mean found value, Stability −20 °C",[3]; actual value 75.00 ng/mL,75.7 ng/mL
same,"Accuracy (%), Stability −20 °C",[3]; actual value 75.00 ng/mL,101.0%
same,"Mean found value, Stability −20 °C",[3]; actual value 250.00 ng/mL,259.5 ng/mL
same,"Accuracy (%), Stability −20 °C",[3]; actual value 250.00 ng/mL,103.8%
same,Ki,DDAH1; dotted line in figures,7 µM
same,Ki expressed as concentration,DDAH1; equivalent of 7 μM,1.625 µg/mL
